Square brackets hold non-standard residues; d marks the D form. Peptide text beside a SMILES is read from it. * marks the point of attachment. ξ: configuration not given here. Cbz = O=C(OCc1ccccc1)*; ξDap = NCC(N)C(=O)O
How the values were obtained:
Genome polyprotein = Genome polyprotein (rhinovirus B14, UniProt P03303); experiment: Inhibition of Human rhinovirus serotype 14 3C protease preincubated for 1 hr followed by Cys(PT14M)-Ala-Ile-Phe-Gln'Gly-Pro-Asp-Phe(4-NH2)-OH substrate addition measured after 1 hr by fluorescence lifetime readout assay
rhinovirus B14 = experiment: Antiviral activity against Human rhinovirus serotype 14 infected in human HeLa cells assessed as reduction in virus-induced cytopathic effect by measuring reduction in host cell viability preincubated with cells for 6 hrs followed by viral infection measured up to 72 hrs by CellTiter-Glo luminescence assay; assay type: functional, organism-based; conditions: Rhinovirus B

Genome polyprotein, sequence (P03303 1538-1719 limits assumed): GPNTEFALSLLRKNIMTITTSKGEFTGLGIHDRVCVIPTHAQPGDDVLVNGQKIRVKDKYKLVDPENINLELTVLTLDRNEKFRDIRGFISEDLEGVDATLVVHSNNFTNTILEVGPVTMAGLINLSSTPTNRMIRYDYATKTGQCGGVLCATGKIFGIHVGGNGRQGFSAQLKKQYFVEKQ

SMILES: Cc1cc(C(=O)N[C@H]2CCCCNC(=O)CC[C@@H](C=O)NC(=O)[C@H](Cc3ccc(F)cc3)NC2=O)no1
- IC50 (Genome polyprotein): 3200 nM
- EC50 (rhinovirus B14): > 50000 nM

SMILES: Cc1cc(C(=O)N[C@H]2CNC(=O)[C@H]3CCCN3C(=O)CC[C@@H](C=O)NC(=O)[C@H](Cc3ccc(F)cc3)NC2=O)no1
- IC50 (Genome polyprotein): 6 nM
- EC50 (rhinovirus B14): 33500 nM

SMILES: CCOC(=O)/C=C/[C@@H]1CCC(=O)N(C)CCCC[C@H](NC(=O)c2cc(C)on2)C(=O)N[C@@H](Cc2ccc(F)cc2)C(=O)N1
- IC50 (Genome polyprotein): 3840 nM
- EC50 (rhinovirus B14): > 50000 nM

SMILES: Cc1cc(C(=O)N[C@H]2CCCCN(C)C(=O)CC[C@@H](C(=O)C(=O)N3CCC3)NC(=O)[C@H](Cc3ccc(F)cc3)NC2=O)no1
- IC50 (Genome polyprotein): 35 nM
- EC50 (rhinovirus B14): 6100 nM

SMILES: Cc1cc(C(=O)N[C@H]2CNC(=O)CN(C)C(=O)CC[C@@H](C=O)NC(=O)[C@H](Cc3ccc(F)cc3)NC2=O)no1
- IC50 (Genome polyprotein): 18 nM
- EC50 (rhinovirus B14): > 50000 nM

SMILES: Cc1cc(C(=O)N[C@H]2CCCNC(=O)[C@H]3CCN(C3)C(=O)CC[C@@H](C=O)NC(=O)[C@H](Cc3ccc(F)cc3)NC2=O)no1
- IC50 (Genome polyprotein): 2 nM
- EC50 (rhinovirus B14): > 50000 nM

SMILES: Cc1cc(C(=O)N[C@@H]2C(=O)N[C@@H](Cc3ccc(F)cc3)C(=O)N[C@H](C=O)CCC(=O)NCc3cccc2c3)no1
- IC50 (Genome polyprotein): 753 nM
- EC50 (rhinovirus B14): 21900 nM

SMILES: Cc1cc(C(=O)N[C@H]2CCCCN(C)C(=O)CC[C@@H](C=O)NC(=O)[C@@H]3C[C@@H](c4ccccc4)CN3C2=O)no1
- IC50 (Genome polyprotein): 7370 nM
- EC50 (rhinovirus B14): 28600 nM

SMILES: Cc1cc(C(=O)N[C@H]2CNC(=O)C[C@H]3CCCN3C(=O)CC[C@@H](C=O)NC(=O)[C@H](Cc3ccc(F)cc3)NC2=O)no1
- IC50 (Genome polyprotein): 2 nM
- EC50 (rhinovirus B14): 29100 nM

SMILES: Cc1cc(C(=O)N[C@H]2C/C=C/CCCO[C@H]3CCN(C3)C(=O)CC[C@@H](C=O)NC(=O)[C@H](Cc3ccc(F)cc3)NC2=O)no1
- IC50 (Genome polyprotein): 2 nM
- EC50 (rhinovirus B14): 2050 nM

SMILES: Cc1cc(C(=O)N[C@H]2C/C=C/CO[C@H]3CCN(C3)C(=O)CC[C@@H](C=O)NC(=O)[C@H](Cc3ccc(F)cc3)NC2=O)no1
- IC50 (Genome polyprotein): 3 nM
- EC50 (rhinovirus B14): 5740 nM

SMILES: Cc1cc(C(=O)N[C@@H]2C(=O)N[C@@H](Cc3ccc(F)cc3)C(=O)N[C@H](C=O)CCC(=O)N(C)Cc3cccc2c3)no1
- IC50 (Genome polyprotein): 8 nM
- EC50 (rhinovirus B14): 568 nM

SMILES: Cc1cc(C(=O)N[C@H]2CCCCN(C)C(=O)CC[C@@H](C=O)NC(=O)[C@H](Cc3ccc(F)cc3)NC2=O)no1
- IC50 (Genome polyprotein): 63 nM
- EC50 (rhinovirus B14): 3400 nM

SMILES: CC(=O)NCC(C=O)NC(=O)[C@H](Cc1ccccc1)NC(=O)[C@H](CC(C)C)NC(=O)OCc1ccccc1 (stereo partly drawn) (Cbz-Leu-Phe-[ξDap](Ac)-aldehyde)
- IC50 (Genome polyprotein): 7 nM
- EC50 (rhinovirus B14): 1760 nM

— ChEMBL document CHEMBL4184282, “Structure-based design and synthesis of macrocyclic human rhinovirus 3C protease inhibitors” (Bioorg Med Chem Lett, 2018)
